From patent publication US20040077599A1, “Novel spiro[2.4]heptane amino carboxy compounds and derivatives thereof” (priority 2000, published 2004)
Read-outs that look alike come from different tables or passages of the source.

Columns and labels:
[1] = test system: Group I metabotropic glutamate receptors (mGluRs); assay: Phosphatidylinositol assay (inositol phosphate accumulation in neonatal tissue slices); format: cell-based, Sprague Dawley rat; conditions: neonatal rat slices, 45 minutes; for EC50: antagonist mode vs ACPD; for Group I Agonist: increase in intracellular free inositol phosphate accumulation; for Group I Antagonist: inhibits inositol phosphate accumulation induced by ACPD
Method: Phosphatidylinositol (PI) hydrolysis can be measured as described below: Briefly, cross-chopped slices are prepared from neonatal Sprague Dawley rat tissue (age: p7-p14). The slices are pre-labelled with [^3H] myo-inositol. Following pre-labelling, the slices are incubated with the test drugs and standard (known Group I agonists i.e. ACPD) for a period of 45 minutes. The incubation is terminated by the addition of chloroform/methanol/HCl (100:200:2). The resulting mixture is separated into two phases by the addition of chloroform and distilled water. The aqueous fraction is applied to ion exchange columns, and inositol phosphates are eluted using 800 mM Ammonium Formate/100 mM Formic Acid. The eluent is then analyzed using liquid scintillation counting. The amount of inositol phosphate accumulation is expressed as a percentage of that induced by ACPD.
Group I metabotropic glutamate receptors (mGluRs) are positively coupled on inositol phosphate metabolism. Agonists at these receptors lead to an increase in intracellular free inositol phosphates, while antagonists inhibit the increase in intracellular free inositol phosphate induced by standard agonists (i.e. ACPD).
Cross-chopped slices were prepared from neonatal Sprague Dawley rat tissue (age: p7-p14). The slices were pre-labelled with [^3H] myo-inositol. Following pre-labelling, the slices were incubated with the test compounds and standard (known Group I agonists i.e. ACPD) for a period of 45 minutes. The incubation was terminated by the addition of chloroform/methanol/HCl (100:200:2). The resulting mixture was separated into two phases by the addition of chloroform and distilled water. The aqueous fraction was applied to ion exchange columns, and inositol phosphates were eluted using 800 mM Ammonium Formate/100 mM Formic Acid. The eluent was then analyzed using liquid scintillation counting. The amount of inositol phosphate accumulation was expressed as a percentage of that induced by ACPD.
If the drugs cause an increase in intracellular free inositol phosphate accumulation, they are considered to be Group I agonists. […]

[2] = test system: Group II/III metabotropic glutamate receptors (mGluRs); assay: Cyclic AMP assay (forskolin-induced cyclic AMP accumulation in cortical slices); format: cell-based, Sprague Dawley rat; conditions: rat cortical slices; for Group II/III Agonist: inhibits forskolin-induced cyclic AMP accumulation; for Group II/III Antagonist: inhibits the glutamate-caused decrease in forskolin-induced cyclic AMP accumulation
Method: The assay of cyclic AMP formation can be performed as described previously (Tovey et al., Clinica Chimica Acta, 56, 221-234, 1974). The assay can be modelled on the cyclic AMP assay kit available from Amersham, which in turn, is based on the assay created by Tovey et al. Briefly, samples are prepared from Sprague Dawley rat (225-250 g) cortical slices. Slices are incubated with the drug, and then challenged with forskolin to induce cyclic AMP release. Following termination of the reaction by boiling, the slices are homogenized and centrifuged. Samples of supernatant are then incubated for 2-3 hours with a known quantity of [^3H]cAMP and a binding protein. When the incubation is complete, the bound cyclic AMP is separated from the free cyclic AMP by centrifugation with charcoal. The resulting supernatant (containing free cyclic AMP) is then analyzed by liquid scintillation counting. The amount of unbound cyclic AMP can be calculated from a standard curve previously determined with various samples of free cyclic AMP.
Group II/III metabotropic glutamate receptors (mGluRs) are negatively coupled to adenylate cyclase, and agonists of these receptors lead to a decrease in intracellular cyclic AMP accumulation.
The assay has been modeled on the cyclic AMP assay kit available from Amersham. This kit, in turn, is based on the assay created by Tovey et al. (1974). Briefly, the samples were prepared from Sprague Dawley rat (225-250 g) cortical slices. Slices were incubated with the test compound (drug), and then challenged with forskolin to induce cyclic AMP release. Following termination of the reaction by boiling, the slices were homogenized and centrifuged. Samples of supernatant were then incubated for 2-3 hours with a known quantity of [^3H]cAMP and a binding protein. When the incubation was complete, the bound cyclic AMP was separated from the free cyclic AMP by centrifugation with charcoal. The resulting supernatant (containing free cyclic AMP) was then analyzed by liquid scintillation counting. The amount of unbound cyclic AMP was calculated from a standard curve previously determined with various samples of free cyclic AMP.
If the drugs tested inhibit forskolin-induced cyclic AMP accumulation, they are considered to be Group II/III agonists. Conversely, if they inhibit the decrease in forskolin-induced cyclic AMP accumulation caused by glutamate, they are considered to be Group II/III antagonists.

[3] = antagonist mode vs glutamate, read-out: EC50 (M), Group II/III Antagonist
[4] = agonist mode, read-out: EC50 (M), Group II/III Agonist

Structure (SMILES) | EC50 [1] [nM] | Group I Agonist [1] | Group I Antagonist [1] | EC50 [2, 3] [M] | Group II/III Agonist [2] | Group II/III Antagonist [2] | EC50 [2, 4] [M]
N[C@@]1(C(=O)O)CCCC12CC2C(=O)O (some centres unmarked) [Compound 7, Spiro[2.4]heptane-4-amino-1,4-dicarboxylic acid] | 220 | No | Yes | 1.4e-09 | No | Yes | 
N[C@]1(C(=O)O)CCCC12CC2C(=O)O (some centres unmarked) [Compound 8, Spiro[2.4]heptane-4-amino-1,4-dicarboxylic acid] | 94 | No | Yes | 1e-06 | No | yes | 
NC1(C(=O)O)CCCC12C(C(=O)O)C2c1ccccc1 (centres unmarked) [Compound 16, Spiro[2.4]heptane4-amino-2-phenyl-1,4-dicarboxylic Acid] | 100 | No | Yes |  | Yes | No | 1e-09
NC1(C(=O)O)CC2(CC2C(=O)O)c2ccccc21 (centres unmarked) [Compound 22, 1-Amino-1-carboxyindan-3-spiro-cyclopropanecarboxylic Acid] |  | No | No | 8.7e-10 | No | No | 
NC(C(=O)O)C1CCCC12CC2C(=O)O (centres unmarked) [Compound 26, Spiro[4,2]heptane-1-carboxy-4-glycine] | 88 | No | Yes |  | Yes | Yes | 1.6e-06
NC(C(=O)O)C1CCCC12CC2C(=O)O (centres unmarked) [Compound 27, Spiro[4,2]heptane-1-carboxy-4-glycine] | 0.84 | No | Yes |  | Yes | Yes | 8.7e-11
